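96-well plates; 48 h exposure; 5 concentrations. Endpoints by linear interpolation between flanking doses. Not reached: highest tested concentration assigned. Definition used: TGI = concentration required for complete inhibition of growth.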
Assays:
Test in all cases: NCI-60 cell line screen, 48 h
[1] = tested on: A498 renal
[2] = tested on: SF-539 CNS
[3] = tested on: NCI/ADR-RES ovarian
[4] = tested on: HCT-116 colon
[5] = tested on: HOP-92 NSCLC
[6] = tested on: IGROV1 ovarian
[7] = tested on: SK-MEL-28 melanoma
[8] = tested on: ACHN renal
[9] = tested on: SW-620 colon
[10] = tested on: EKVX NSCLC
[11] = tested on: TK-10 renal
[12] = tested on: SF-295 CNS
[13] = tested on: A549 NSCLC
[14] = tested on: HCT-15 colon
[15] = tested on: NCI-H460 lung
[16] = tested on: U251 CNS
[17] = tested on: UO-31 renal
[18] = tested on: SK-MEL-5 melanoma
[19] = tested on: RXF 393 renal
[20] = tested on: KM12 colon
[21] = tested on: OVCAR-3 ovarian
[22] = tested on: COLO 205 colon
[23] = tested on: T-47D breast
[24] = tested on: MDA-N
[25] = tested on: OVCAR-5 ovarian
[26] = tested on: MALME-3M melanoma
[27] = tested on: NCI-H522 lung
[28] = tested on: MOLT-4 leukemia
[29] = tested on: SK-MEL-2 melanoma
[30] = tested on: SF-268 CNS
[31] = tested on: BT-549 breast
[32] = tested on: M14 melanoma
[33] = tested on: SK-OV-3 ovarian
[34] = tested on: K-562 leukemia
[35] = tested on: MCF7 breast
[36] = tested on: OVCAR-8 ovarian
[37] = tested on: HL-60(TB) leukemia
[38] = tested on: CCRF-CEM leukemia
[39] = tested on: SR leukemia
[40] = tested on: OVCAR-4 ovarian
[41] = tested on: MDA-MB-231 breast
[42] = tested on: DU-145 prostate
[43] = tested on: 786-0 renal
[44] = tested on: HOP-62 NSCLC
[45] = tested on: HS 578T breast
[46] = tested on: UACC-257 melanoma
[47] = tested on: PC-3 prostate
[48] = tested on: SNB-75 CNS
[49] = tested on: UACC-62 melanoma
[50] = tested on: LOX IMVI melanoma
[51] = tested on: CAKI-1 renal
[52] = tested on: NCI-H226 lung
[53] = tested on: HT29 colon
[54] = tested on: SN12C renal
[55] = tested on: RPMI-8226 leukemia
[56] = tested on: SNB-19 CNS
[57] = tested on: MDA-MB-435
[58] = tested on: HCC-2998 colon
[59] = tested on: NCI-H23 lung

COc1nc2ncc([C@@H](O)[C@H](O)CO)nc2c(=O)n1C
TGI [1]: > 100 µM | TGI [2]: > 100 µM | TGI [3]: > 100 µM | TGI [4]: > 100 µM | TGI [5]: > 100 µM | TGI [6]: > 100 µM | TGI [7]: > 100 µM | TGI [8]: > 100 µM | TGI [9]: > 100 µM | TGI [10]: > 100 µM | TGI [11]: > 100 µM | TGI [12]: > 100 µM | TGI [13]: > 100 µM | TGI [14]: > 100 µM | TGI [15]: > 100 µM | TGI [16]: > 100 µM | TGI [17]: > 100 µM | TGI [18]: > 100 µM | TGI [19]: > 100 µM | TGI [20]: > 100 µM | TGI [21]: > 100 µM | TGI [22]: > 100 µM | TGI [23]: > 100 µM | TGI [24]: > 100 µM | TGI [25]: > 100 µM | TGI [26]: > 100 µM | TGI [27]: > 100 µM | TGI [28]: > 100 µM | TGI [29]: > 100 µM | TGI [30]: > 100 µM | TGI [31]: > 100 µM | TGI [32]: > 100 µM | TGI [33]: > 100 µM | TGI [34]: > 100 µM | TGI [35]: > 100 µM | TGI [36]: > 100 µM | TGI [37]: > 100 µM | TGI [38]: > 100 µM | TGI [39]: > 100 µM | TGI [40]: > 100 µM | TGI [41]: > 100 µM | TGI [42]: > 100 µM | TGI [43]: > 100 µM | TGI [44]: > 100 µM | TGI [45]: > 100 µM | TGI [46]: > 100 µM | TGI [47]: > 100 µM | TGI [48]: > 100 µM | TGI [49]: > 100 µM | TGI [50]: > 100 µM | TGI [51]: > 100 µM | TGI [52]: > 100 µM | TGI [53]: > 100 µM | TGI [54]: > 100 µM | TGI [55]: > 100 µM | TGI [56]: > 100 µM | TGI [57]: > 100 µM

C=C[C@]1(C)C[C@@H](OC(=O)CO)[C@@]2(C)[C@H](C)CC[C@]3(CCC(=O)[C@H]32)[C@@H](C)[C@@H]1O
TGI [1]: > 78.2 µM | TGI [2]: > 100 µM | TGI [3]: > 100 µM | TGI [4]: > 100 µM | TGI [5]: > 100 µM | TGI [6]: > 100 µM | TGI [7]: > 100 µM | TGI [58]: > 100 µM | TGI [8]: > 100 µM | TGI [9]: > 100 µM | TGI [10]: > 100 µM | TGI [11]: > 100 µM | TGI [12]: > 100 µM | TGI [13]: > 100 µM | TGI [14]: > 100 µM | TGI [15]: > 100 µM | TGI [16]: > 100 µM | TGI [17]: > 100 µM | TGI [18]: > 100 µM | TGI [19]: > 100 µM | TGI [20]: > 100 µM | TGI [21]: > 100 µM | TGI [22]: > 100 µM | TGI [23]: > 100 µM | TGI [24]: > 100 µM | TGI [25]: > 100 µM | TGI [26]: > 100 µM | TGI [27]: > 100 µM | TGI [28]: > 75.5 µM | TGI [29]: > 100 µM | TGI [30]: > 100 µM | TGI [31]: > 100 µM | TGI [32]: > 100 µM | TGI [33]: > 100 µM | TGI [34]: > 75.1 µM | TGI [35]: > 100 µM | TGI [36]: > 100 µM | TGI [37]: > 100 µM | TGI [39]: > 74.2 µM | TGI [40]: > 100 µM | TGI [41]: > 100 µM | TGI [42]: > 100 µM | TGI [43]: > 100 µM | TGI [44]: > 100 µM | TGI [45]: 97 µM | TGI [46]: > 100 µM | TGI [47]: > 100 µM | TGI [48]: > 100 µM | TGI [49]: > 50.3 µM | TGI [50]: > 31.6 µM | TGI [51]: > 100 µM | TGI [52]: > 100 µM | TGI [53]: > 100 µM | TGI [59]: > 100 µM | TGI [54]: > 100 µM | TGI [55]: > 100 µM | TGI [56]: > 100 µM | TGI [57]: > 100 µM
